Experimental data from patent US20230413819A1, “METHODS FOR CONTROLLING FLEA AND TICK INFESTATIONS IN A MAMMAL” (In the Bowl Animal Health, Inc., priority 2021, published 2023).
Values joined by “and” are separate entries in the source; they are usually repeats but may differ in a detail not shown here. Identical values can stand only once.

Assays:
Format in all cases: in vivo, dogs
[1] = Average plasma concentration of mivorilaner, medicated daily feed (Example 9)
Method: Each dog in a treatment group (test groups 2-4) is to receive a medicated daily feed from study days 0-49. The medicated daily feed is to be offered to the dogs for 1 hour on each of days 0-49 according to test groups listed in TABLE 11.

[2] = Plasma concentration of mivorilaner, 0.75 mg/kg daily oral (Examples 4 and 10)
Method: Each dog in the treatment group is to receive by mouth a liquid formulation of isoxazoline. The dosage of 0.75 mg/kg is to be administered to the dogs on each of days 0-29.
Dogs in the control group are not to receive isoxazoline or any other tick control treatment. Each dog in the treatment group is to be offered its daily ration (dry food) and the individual doses of liquid formulation are to be administered after the individual dog has eaten at least 25% of its total daily ration. After receiving the dose of isoxazoline, the dogs are to be allowed to continue eating. This mimics incorporating the isoxazoline in feed. Each dog in the treatment group and the control group is to be experimentally infested with 50 adult ticks on test days 5, 12, 19, 28 and 35. Comb counts for live and moribund attached ticks are to be conducted on days 7, 14, 21, 30 and 37.
Dogs in the control group are not to receive isoxazoline or any other flea control treatment. Each dog in the treatment group is to be offered its daily ration (dry food) and the individual doses of liquid formulation are to be administered after the individual dog has eaten at least 25% of its total daily ration. After receiving the dose of isoxazoline, the dogs are to be allowed to continue eating. This mimics incorporating the isoxazoline in feed. Each dog in the treatment group and the control group is to be experimentally infested with 100 unfed adult fleas on test days 2, 5, 12, 20 and 35. Comb counts for live adult fleas are to be conducted on days 4, 7, 14, 21 and 37.

[3] = Average plasma concentration of mivorilaner, various daily oral doses (Examples 5 and 11); details: dog, Group 2, 0.125 mg/kg/day oral, fed

## O=C(CNC(=O)c1sc(C2=NO[C@@](c3cc(Cl)c(F)c(Cl)c3)(C(F)(F)F)C2)c2c1CCC2)NCC(F)F [mivorilaner, 3-[(5S)-5-(3,5-dichloro-4-fluorophenyl)-5-(trifluoromethyl)-4,5-dihydroisoxazol-3-yl]-N-[2-[(2,2-difluoroethyl)amino]-2-oxoethyl]-5,6-dihydro-4H-cyclopenta[c]thiophene-1-carboxamide]
[1]; Group 2, 106 mg/kg feed (anticipated 1 mg/kg daily), 1 hr
  average plasma concentration of isoxazoline (mivorilaner): 49.98
[1]; Group 2, 106 mg/kg feed (anticipated 1 mg/kg daily), 3 hr
  average plasma concentration of isoxazoline (mivorilaner): 292.00
[1]; Group 2, 106 mg/kg feed (anticipated 1 mg/kg daily), 6 hr
  average plasma concentration of isoxazoline (mivorilaner): 539.00
[1]; Group 2, 106 mg/kg feed (anticipated 1 mg/kg daily), 10 hr
  average plasma concentration of isoxazoline (mivorilaner): 505.40
[1]; Group 2, 106 mg/kg feed (anticipated 1 mg/kg daily), 24 hr
  average plasma concentration of isoxazoline (mivorilaner): 458.60
[1]; Group 2, 106 mg/kg feed (anticipated 1 mg/kg daily), 48 hr
  average plasma concentration of isoxazoline (mivorilaner): 771.83
[1]; Group 2, 106 mg/kg feed (anticipated 1 mg/kg daily), 96 hr
  average plasma concentration of isoxazoline (mivorilaner): 1570.50
[1]; Group 2, 106 mg/kg feed (anticipated 1 mg/kg daily), 168 hr
  average plasma concentration of isoxazoline (mivorilaner): 2156.67
[1]; Group 2, 106 mg/kg feed (anticipated 1 mg/kg daily), 240 hr
  average plasma concentration of isoxazoline (mivorilaner): 3003.33
[1]; Group 2, 106 mg/kg feed (anticipated 1 mg/kg daily), 336 hr
  average plasma concentration of isoxazoline (mivorilaner): 3290.00
[1]; Group 3, 106 mg/kg feed (anticipated 1 mg/kg daily), 1 hr
  average plasma concentration of isoxazoline (mivorilaner): 40.41
[1]; Group 3, 106 mg/kg feed (anticipated 1 mg/kg daily), 3 hr
  average plasma concentration of isoxazoline (mivorilaner): 264.83
[1]; Group 3, 106 mg/kg feed (anticipated 1 mg/kg daily), 6 hr
  average plasma concentration of isoxazoline (mivorilaner): 467.50
[1]; Group 3, 106 mg/kg feed (anticipated 1 mg/kg daily), 10 hr
  average plasma concentration of isoxazoline (mivorilaner): 419.17
[1]; Group 3, 106 mg/kg feed (anticipated 1 mg/kg daily), 24 hr
  average plasma concentration of isoxazoline (mivorilaner): 435.17
[1]; Group 3, 106 mg/kg feed (anticipated 1 mg/kg daily), 48 hr
  average plasma concentration of isoxazoline (mivorilaner): 781.83
[1]; Group 3, 106 mg/kg feed (anticipated 1 mg/kg daily), 96 hr
  average plasma concentration of isoxazoline (mivorilaner): 1596.67
[1]; Group 3, 106 mg/kg feed (anticipated 1 mg/kg daily), 168 hr
  average plasma concentration of isoxazoline (mivorilaner): 2406.67
[1]; Group 3, 106 mg/kg feed (anticipated 1 mg/kg daily), 240 hr
  average plasma concentration of isoxazoline (mivorilaner): 3026.67
[1]; Group 3, 106 mg/kg feed (anticipated 1 mg/kg daily), 336 hr
  average plasma concentration of isoxazoline (mivorilaner): 3516.67
[1]; Group 4, 318 mg/kg feed (anticipated 3 mg/kg daily), 1 hr
  average plasma concentration of isoxazoline (mivorilaner): 143.75
[1]; Group 4, 318 mg/kg feed (anticipated 3 mg/kg daily), 3 hr
  average plasma concentration of isoxazoline (mivorilaner): 846.50
[1]; Group 4, 318 mg/kg feed (anticipated 3 mg/kg daily), 6 hr
  average plasma concentration of isoxazoline (mivorilaner): 1265.67
[1]; Group 4, 318 mg/kg feed (anticipated 3 mg/kg daily), 10 hr
  average plasma concentration of isoxazoline (mivorilaner): 1198.17
[1]; Group 4, 318 mg/kg feed (anticipated 3 mg/kg daily), 24 hr
  average plasma concentration of isoxazoline (mivorilaner): 1021.17
[1]; Group 4, 318 mg/kg feed (anticipated 3 mg/kg daily), 48 hr
  average plasma concentration of isoxazoline (mivorilaner): 2011.67
[1]; Group 4, 318 mg/kg feed (anticipated 3 mg/kg daily), 96 hr
  average plasma concentration of isoxazoline (mivorilaner): 3928.33
[1]; Group 4, 318 mg/kg feed (anticipated 3 mg/kg daily), 168 hr
  average plasma concentration of isoxazoline (mivorilaner): 6461.67
[1]; Group 4, 318 mg/kg feed (anticipated 3 mg/kg daily), 240 hr
  average plasma concentration of isoxazoline (mivorilaner): 8696.67
[1]; Group 4, 318 mg/kg feed (anticipated 3 mg/kg daily), 336 hr
  average plasma concentration of isoxazoline (mivorilaner): 11600.00
[2]; 0.75 mg/kg/day oral days 0-29, Day 3, 0.75 mg/kg/day
  Mivorilaner Concentration, individual canines: 579 ng/mL and 660 ng/mL and 800 ng/mL and 798 ng/mL and 556 ng/mL and 648 ng/mL
[2]; 0.75 mg/kg/day oral days 0-29, Day 7, 0.75 mg/kg/day
  Mivorilaner Concentration, individual canines: 994 ng/mL and 1470 ng/mL and 1620 ng/mL and 1660 ng/mL and 1330 ng/mL
[2]; 0.75 mg/kg/day oral days 0-29, Day 14, 0.75 mg/kg/day
  Mivorilaner Concentration, individual canines: 1560 ng/mL and 2120 ng/mL and 2370 ng/mL and 2060 ng/mL and 1990 ng/mL and 2530 ng/mL
[2]; 0.75 mg/kg/day oral days 0-29, Day 21, 0.75 mg/kg/day
  Mivorilaner Concentration, individual canines: 2450 ng/mL and 2720 ng/mL and 2950 ng/mL and 2660 ng/mL and 2750 ng/mL and 2820 ng/mL
[2]; 0.75 mg/kg/day oral days 0-29, Day 30, 0.75 mg/kg/day
  Mivorilaner Concentration, individual canines: 2320 ng/mL and 2600 ng/mL and 2790 ng/mL and 2570 ng/mL and 2890 ng/mL
[2]; 0.75 mg/kg/day oral days 0-29, Day 37, 0.75 mg/kg/day
  Mivorilaner Concentration, individual canines: 1880 ng/mL and 2010 ng/mL and 1980 ng/mL and 1750 ng/mL and 2070 ng/mL and 2410 ng/mL
[2]; 0.75 mg/kg/day oral days 0-29, Day −1 (before first dose)
  Mivorilaner Concentration, individual canines: BLQ
[2]; dog, po, 0.75 mg/kg/day, 0.75 mg/kg/day oral days 0-29, Day 30, read-out: Mivorilaner Concentration, individual canines
  concentration at 30 day: 2890 ng/mL
[3]; 0 h after initial dose
  concentration at 0 h: 0 ng/mL
[3]; 72 h after initial dose
  concentration at 72 h: 136 ng/mL
[3]; 120 h after initial dose
  concentration at 120 h: 213 ng/mL
[3]; 168 h after initial dose
  concentration at 168 h: 244 ng/mL
[3]; 336 h after initial dose
  concentration at 336 h: 384 ng/mL
[3]; 504 h after initial dose
  concentration at 504 h: 404 ng/mL
[3]; 720 h after initial dose
  concentration at 720 h: 420 ng/mL
[3]; 888 h after initial dose
  concentration at 888 h: 448 ng/mL
[3]; 1056 h after initial dose
  concentration at 1056 h: 428 ng/mL
